{
  "source": "patent US5173504A",
  "about": "“Bacteriochlorophyll-a derivatives useful in photodynamic therapy” (Health Research, Inc., priority 1991, dated 1992)",
  "key": {"[1]": {"conditions": "Beems et al., Photochemistry and Photobiology (1987); cited from earlier work"}, "[2]": {"assay": "stability of bchla", "type": "physicochemical", "text": "Bchla is readily obtained by extraction from bacterial sources, and is available commercially from Porphyrin Products, Logan, UT."}, "[3]": {"assay": "uptake and clearance in tumor (extraction, HPLC)", "type": "in vivo, DBA/2 Ha Mice", "experimental": "(§1) Uptake and clearance of bchla in tumor and liver were measured by extraction of the tumor or liver tissue with 1:1MeOH:CH2 Cl2, followed by HPLC analysis."}, "[4]": {"assay": "cutaneous photosensitivity: response of the foot of the treated mice", "type": "in vivo", "conditions": "FIG. 3", "experimental": "One of the undesirable side effects of photodynamic therapy using certain compounds is cutaneous photosensitivity unrelated to the target biological substrate. Accordingly, the effect of the treatment on the photosensitivity of the foot of the treated mice was measured. The response of the foot was measured as erythema and/or edema (or loss of skin or further damage)."}, "[5]": {"test_system": "SMT-F tumors", "assay": "tumor response to photodynamic treatment in mice transplanted with SMT-F tumors", "type": "in vivo, DBA2/HaD mice", "experimental": "DBA2/HaD mice were transplanted with SMT-F tumors. When the subcutaneous tumors reached 4.5-5.5 mm in diameter, the mice, in groups of five, were injected intravenously with the bchla solution of Example 1 in doses of 5-30 mg/kg. At a time 1 hour-5 days later, the tumor, previously shaved and depiliated, plus a margin of 2-3 mm was exposed to radiation of a wavelength in the range 630-800 nm using a Spectraphysics argon dye laser with Exciton LDS751 dye, tunable over the 700-800 nm range or a diode laser--e.g., Spectra Diode emitting in the 750-850 nm range or a Xenon arc lamp filtered with an interference filter to pass 90% of the 700 nm light ±60 nm at dose rates of 75-150 mw/cm^2. When the Xenon system was used, mild hyperthermia resulted (42° C. at 160 mW/cm^2). It is not known whether this temperature rise acts synergistically with bchla as has been shown with HpD and its active fraction.\nTumor response is shown in the table of FIG. 1 for the seventh day after light treatment which indicates regression, and at a time point at least 30 days after light treatment, which would indicate cure, if there had been no regrowth."}, "[6]": {"assay": "uptake and clearance in liver (extraction, HPLC)", "type": "in vivo, DBA/2 Ha Mice", "experimental": "as §1"}, "[7]": {"assay": "light absorption of bchla", "type": "physicochemical", "text": "Bchla is essentially identical to the chlorophyll-a of higher plants except that ring B is in the dihydro form and the vinyl group in ring A is converted to an acetyl group. The wavelength absorption maximum of bchla is about 780 nm and the extinction coefficient in this region is quite high (E780= 75,000). This long wavelength absorption is advantageous because light penetrates tissues 2-3 times more effectively at a wavelength nearly 800 nm versus lower wavelengths, e.g., 630 nm.\nBacteriochlorophyll-a, obtained at >90% purity from Porphyrin Products (Logan, UT) was dissolved at a concentration of 5 mg/ml in Tween-80 (Sigma) by stirring for several hours or overnight. The resulting solution was mixed with 9 volumes of Hank's buffer solution with agitation until all of the detergent solution was dissolved. Any remaining particulate matter is removed by filtration and the concentration of the final solution is determined spectrophotometrically using a 1:100 dilution in distilled water (OD780= 87.3 for 1 mg/ml of concentrate). In general, if the initial solution of bchla is conducted carefully, the resulting formulation has a concentration of bchla of 0.5 mg/ml."}, "[8]": {"test_system": "tumors approximately 1 cm in depth", "assay": "light penetration: necrotic depth in tumors", "type": "in vivo", "conditions": "20 mg/kg, irradiation after 1 hour, 270 J/cm^2 at 780 nm; histology the day following", "experimental": "Comparison was made using bchla at 20 mg/kg with irradiation after 1 hour at 270 J/cm^2 at 780 nm, and DHE at 5 mg/kg after 1 hour at 270 J/cm^2 at 630 nm. Animals with tumors approximately 1 cm in depth were used in the comparison. Histological sections were obtained the day following treatment, fixed and stained."}},
  "data": [
    {"smiles": "CCC1c2cc3[nH]c4c(c3C)C(=O)C(C(=O)OC)c4c3nc(cc4[nH]c(cc(n2)C1C)c(C(C)=O)c4C)C(C)C3CCC(=O)O", "note": "(stereo not shown) [bacteriochlorin-a]", "values": [
      {"measurement": "water solubility compared to bacteriochlorophyll-a", "setting": "[1]", "value": "enhanced water solubility"}
    ]},
    {"smiles": "CCC1C2=Cc3c(C)c4c5[n]3[Mg][n]3c(c(C)c(C(C)=O)c3=CC(=N2)C1C)=CC1=NC(=C5C(C(=O)OC)C4=O)C(CCC(=O)O)C1C", "note": "(stereo not shown) [bacteriochloro-phyllin-a]", "values": [
      {"measurement": "water solubility compared to bacteriochlorophyll-a", "setting": "[1]", "value": "enhanced water solubility"}
    ]},
    {"smiles": "CCC1C2=Cc3c(C)c4c5[n]3[Mg][n]3c(c(C)c(C(C)=O)c3=CC(=N2)C1C)=CC1=NC(=C5C(C(=O)OC)C4=O)C(CCC(=O)OCC=C(C)CCCC(C)CCCC(C)CCCC(C)C)C1C", "note": "(stereo not shown) [bchla, Bacteriochlorophyll-a]", "values": [
      {"measurement": "oxidation stability", "setting": "[2]", "value": "readily oxidized, especially in the presence of light"},
      {"measurement": "stability in vivo", "setting": "[2]; in vivo", "value": "sufficiently stable in vivo to be an effective phototherapeutic agent"},
      {"measurement": "loss of magnesium ion in dilute acid", "setting": "[2]; presence of dilute acid", "value": "the magnesium ion is readily removed in the presence of dilute acid"},
      {"measurement": "composition of material in tumor", "setting": "[3]; 24 hours after injection", "value": "demetallized but still contains phytyl"},
      {"measurement": "composition of material in tumor", "setting": "[3]; 48 hours after injection", "value": "mainly material without phytyl and without Mg"},
      {"measurement": "time of partial conversion to bacteriopheophytin in tumor", "setting": "[3]; tumor", "value": "≥ 24", "unit": "h"},
      {"measurement": "sensitivity of the tumor and the skin of the foot over time", "setting": "[4]", "value": "the sensitivity of the tumor and the skin of the foot declined concomitantly"},
      {"measurement": "tumor response", "setting": "[5]; 5 mg/kg i.v., irradiated after 2 hours, 670-790 nm range", "value": "good response"},
      {"measurement": "tumor response", "setting": "[5]; 10 mg/kg i.v., irradiated 24 hours after injection, 680-780 nm", "value": "good response"},
      {"measurement": "time of partial conversion to bacteriopheophytin in liver", "setting": "[6]", "value": 2, "unit": "h"},
      {"measurement": "wavelength absorption maximum", "setting": "[7]", "value": "about 780 nm"},
      {"measurement": "extinction coefficient (E780)", "setting": "[7]; 780 nm", "value": "75,000"},
      {"measurement": "OD780", "setting": "[7]; for 1 mg/ml of concentrate, Tween-80/Hank's buffer formulation, measured at 1:100 dilution in distilled water", "value": 87.3},
      {"measurement": "necrotic depth", "setting": "[8]", "value": "approximately 9 mm"}
    ]}
  ]
}
